Test results reported in article PMC8213057, “Targeting ALK2: An Open Science Approach to Developing Therapeutics for the Treatment of Diffuse Intrinsic Pontine Glioma” (Journal of Medicinal Chemistry, 2020).

How the values were obtained:
ERN2/IRE2 = ERN2/IRE2 (Homo sapiens, UniProt Q76MJ5); conditions: 1 μM; Run 1, Run 2
MSSK1/STK23 = MSSK1/STK23 (Homo sapiens, UniProt Q9UPE1); conditions: 1 μM; Run 1, Run 2
P38g = target: T1, P38g (Homo sapiens, UniProt P53778); conditions: 1 μM; Run 1, Run 2
T1 sequence (P53778 1-367): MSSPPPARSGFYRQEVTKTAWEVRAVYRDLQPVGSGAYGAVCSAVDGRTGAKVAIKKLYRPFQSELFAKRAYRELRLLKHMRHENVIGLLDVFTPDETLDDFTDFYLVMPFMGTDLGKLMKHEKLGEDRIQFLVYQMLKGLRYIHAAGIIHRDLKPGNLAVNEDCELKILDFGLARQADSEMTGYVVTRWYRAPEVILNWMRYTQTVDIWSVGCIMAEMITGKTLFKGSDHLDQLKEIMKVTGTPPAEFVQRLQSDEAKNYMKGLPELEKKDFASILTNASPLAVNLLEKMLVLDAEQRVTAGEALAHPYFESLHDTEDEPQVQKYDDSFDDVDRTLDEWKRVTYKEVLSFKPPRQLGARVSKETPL

PASK = PASK (Homo sapiens, UniProt Q96RG2); conditions: 1 μM; Run 1, Run 2
Chain of PASK (Q96RG2 whole entry): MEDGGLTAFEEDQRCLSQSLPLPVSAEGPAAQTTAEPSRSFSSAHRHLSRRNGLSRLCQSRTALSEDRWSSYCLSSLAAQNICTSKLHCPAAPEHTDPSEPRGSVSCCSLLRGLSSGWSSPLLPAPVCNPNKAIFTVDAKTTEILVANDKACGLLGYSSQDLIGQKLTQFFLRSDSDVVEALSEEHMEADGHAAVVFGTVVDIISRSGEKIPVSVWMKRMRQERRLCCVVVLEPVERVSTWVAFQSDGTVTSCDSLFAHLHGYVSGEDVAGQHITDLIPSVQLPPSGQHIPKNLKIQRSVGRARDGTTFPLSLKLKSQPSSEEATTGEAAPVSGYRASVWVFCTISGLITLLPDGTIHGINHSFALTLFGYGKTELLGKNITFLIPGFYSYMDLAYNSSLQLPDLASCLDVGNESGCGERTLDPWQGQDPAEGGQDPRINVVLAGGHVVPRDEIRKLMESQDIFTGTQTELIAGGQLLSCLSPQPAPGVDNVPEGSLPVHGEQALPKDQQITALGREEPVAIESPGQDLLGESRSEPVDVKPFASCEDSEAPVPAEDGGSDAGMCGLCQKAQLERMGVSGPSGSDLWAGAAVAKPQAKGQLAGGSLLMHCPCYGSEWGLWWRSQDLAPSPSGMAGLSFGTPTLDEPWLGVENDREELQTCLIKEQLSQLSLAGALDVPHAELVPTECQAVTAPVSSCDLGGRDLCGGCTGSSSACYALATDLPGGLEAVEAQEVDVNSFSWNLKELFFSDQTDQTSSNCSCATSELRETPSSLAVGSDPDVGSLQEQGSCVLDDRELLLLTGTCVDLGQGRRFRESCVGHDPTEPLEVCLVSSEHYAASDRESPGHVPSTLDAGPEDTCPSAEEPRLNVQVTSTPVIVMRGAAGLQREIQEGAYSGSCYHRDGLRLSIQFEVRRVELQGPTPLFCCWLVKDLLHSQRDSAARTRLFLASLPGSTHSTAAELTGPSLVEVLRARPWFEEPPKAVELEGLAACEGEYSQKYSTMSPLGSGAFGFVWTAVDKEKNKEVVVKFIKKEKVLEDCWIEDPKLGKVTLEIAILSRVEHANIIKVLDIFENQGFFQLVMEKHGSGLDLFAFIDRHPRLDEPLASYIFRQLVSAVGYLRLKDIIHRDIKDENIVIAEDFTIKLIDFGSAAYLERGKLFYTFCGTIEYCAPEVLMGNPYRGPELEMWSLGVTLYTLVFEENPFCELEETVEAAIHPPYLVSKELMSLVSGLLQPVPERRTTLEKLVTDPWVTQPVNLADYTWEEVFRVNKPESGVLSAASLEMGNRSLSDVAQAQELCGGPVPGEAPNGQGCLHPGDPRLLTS

CDK1/cyclin A = CDK1/cyclin A (Homo sapiens, UniProt P06493); assay: biochemical; conditions: read-out: % enzyme activity, 1 μM; Run 1, Run 2
EPHA3 = target: T2, EPHA3 (Homo sapiens, UniProt P29320); assay: biochemical; conditions: read-out: % enzyme activity, 1 μM; Run 1, Run 2
T2 sequence (P29320 21-983): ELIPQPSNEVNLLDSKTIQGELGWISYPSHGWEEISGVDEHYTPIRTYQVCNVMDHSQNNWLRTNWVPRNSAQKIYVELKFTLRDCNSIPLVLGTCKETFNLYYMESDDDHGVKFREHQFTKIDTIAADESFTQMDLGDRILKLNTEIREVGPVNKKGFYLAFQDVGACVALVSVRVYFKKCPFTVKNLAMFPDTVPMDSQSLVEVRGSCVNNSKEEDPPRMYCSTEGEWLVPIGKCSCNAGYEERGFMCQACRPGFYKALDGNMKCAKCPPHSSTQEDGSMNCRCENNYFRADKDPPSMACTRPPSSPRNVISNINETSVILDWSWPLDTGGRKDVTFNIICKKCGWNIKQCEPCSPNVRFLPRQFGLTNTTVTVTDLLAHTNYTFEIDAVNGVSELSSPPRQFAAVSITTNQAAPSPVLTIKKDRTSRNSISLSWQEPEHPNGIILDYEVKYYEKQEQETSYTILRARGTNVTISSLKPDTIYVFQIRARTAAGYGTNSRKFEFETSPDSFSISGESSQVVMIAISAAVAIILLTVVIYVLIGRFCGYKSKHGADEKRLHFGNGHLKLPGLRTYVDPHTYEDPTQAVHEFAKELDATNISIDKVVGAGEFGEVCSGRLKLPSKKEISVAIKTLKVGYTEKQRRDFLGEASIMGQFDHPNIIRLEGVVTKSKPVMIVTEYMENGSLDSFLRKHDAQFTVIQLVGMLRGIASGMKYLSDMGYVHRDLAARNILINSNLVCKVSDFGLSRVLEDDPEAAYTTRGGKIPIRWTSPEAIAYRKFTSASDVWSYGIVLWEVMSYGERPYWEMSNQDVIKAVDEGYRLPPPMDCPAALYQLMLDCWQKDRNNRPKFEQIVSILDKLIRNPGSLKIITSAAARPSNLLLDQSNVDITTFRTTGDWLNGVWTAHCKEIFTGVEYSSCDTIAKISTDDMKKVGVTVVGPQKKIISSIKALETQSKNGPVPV

ITK = target: T3, ITK (Homo sapiens, UniProt Q08881); assay: biochemical; conditions: read-out: % enzyme activity, 1 μM; Run 1, Run 2
T3 sequence (Q08881 1-620): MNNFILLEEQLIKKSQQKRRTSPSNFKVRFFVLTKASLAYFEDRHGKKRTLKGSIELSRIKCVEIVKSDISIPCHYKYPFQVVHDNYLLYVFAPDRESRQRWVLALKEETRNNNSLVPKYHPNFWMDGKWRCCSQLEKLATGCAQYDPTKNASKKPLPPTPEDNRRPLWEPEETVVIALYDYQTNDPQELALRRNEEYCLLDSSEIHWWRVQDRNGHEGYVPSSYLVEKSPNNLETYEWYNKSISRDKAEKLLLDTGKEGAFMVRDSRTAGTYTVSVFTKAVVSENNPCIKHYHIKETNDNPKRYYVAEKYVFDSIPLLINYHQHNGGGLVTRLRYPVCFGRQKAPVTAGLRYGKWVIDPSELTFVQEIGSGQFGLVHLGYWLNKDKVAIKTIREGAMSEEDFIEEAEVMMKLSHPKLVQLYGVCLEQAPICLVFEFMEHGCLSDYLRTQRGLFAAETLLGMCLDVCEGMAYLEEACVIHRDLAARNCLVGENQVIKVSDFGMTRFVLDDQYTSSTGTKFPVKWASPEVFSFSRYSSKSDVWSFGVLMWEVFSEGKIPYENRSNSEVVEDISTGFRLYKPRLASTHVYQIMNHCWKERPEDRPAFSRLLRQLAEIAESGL

KDR/VEGFR2 = KDR/VEGFR2 (Homo sapiens, UniProt P35968); assay: biochemical; conditions: read-out: % enzyme activity, 1 μM; Run 1, Run 2
Chain of KDR/VEGFR2 (P35968 20-1356): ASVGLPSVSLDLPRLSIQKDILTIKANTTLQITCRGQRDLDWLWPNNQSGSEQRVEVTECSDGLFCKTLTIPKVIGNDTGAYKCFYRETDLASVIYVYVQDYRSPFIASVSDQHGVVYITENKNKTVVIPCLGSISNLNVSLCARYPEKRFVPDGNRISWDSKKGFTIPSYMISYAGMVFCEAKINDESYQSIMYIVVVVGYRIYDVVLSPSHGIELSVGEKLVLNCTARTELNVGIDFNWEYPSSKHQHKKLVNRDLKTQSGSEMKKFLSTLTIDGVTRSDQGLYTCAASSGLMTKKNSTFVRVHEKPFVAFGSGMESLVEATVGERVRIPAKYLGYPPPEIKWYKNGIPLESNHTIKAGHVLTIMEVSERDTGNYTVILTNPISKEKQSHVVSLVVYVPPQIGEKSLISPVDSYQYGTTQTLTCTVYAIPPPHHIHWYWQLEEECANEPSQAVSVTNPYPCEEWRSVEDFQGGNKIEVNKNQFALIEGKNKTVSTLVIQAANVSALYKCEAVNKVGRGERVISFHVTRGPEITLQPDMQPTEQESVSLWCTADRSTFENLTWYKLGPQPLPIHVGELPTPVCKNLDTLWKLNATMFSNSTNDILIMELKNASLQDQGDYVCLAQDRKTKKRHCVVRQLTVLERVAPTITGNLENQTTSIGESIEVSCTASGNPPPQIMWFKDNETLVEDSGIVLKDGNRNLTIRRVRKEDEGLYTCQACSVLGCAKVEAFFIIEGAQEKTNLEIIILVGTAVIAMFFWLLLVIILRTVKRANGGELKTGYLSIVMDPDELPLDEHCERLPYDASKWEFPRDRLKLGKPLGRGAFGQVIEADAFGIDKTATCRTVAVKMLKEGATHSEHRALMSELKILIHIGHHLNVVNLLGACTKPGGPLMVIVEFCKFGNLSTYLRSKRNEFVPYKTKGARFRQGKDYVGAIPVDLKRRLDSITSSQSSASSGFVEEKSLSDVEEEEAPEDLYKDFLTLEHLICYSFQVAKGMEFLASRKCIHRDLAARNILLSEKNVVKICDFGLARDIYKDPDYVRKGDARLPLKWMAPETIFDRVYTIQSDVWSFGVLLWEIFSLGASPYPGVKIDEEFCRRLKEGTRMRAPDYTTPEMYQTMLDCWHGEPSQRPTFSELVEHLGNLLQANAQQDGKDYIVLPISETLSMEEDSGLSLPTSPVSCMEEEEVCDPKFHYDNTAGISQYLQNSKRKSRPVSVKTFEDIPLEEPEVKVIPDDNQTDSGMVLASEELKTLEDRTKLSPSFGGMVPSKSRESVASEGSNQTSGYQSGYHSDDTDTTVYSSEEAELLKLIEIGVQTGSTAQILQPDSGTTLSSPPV

STK32B/YANK2 = STK32B/YANK2 (Homo sapiens, UniProt Q9NY57); assay: biochemical; conditions: read-out: % enzyme activity, 1 μM; Run 1, Run 2
Chain of STK32B/YANK2 (Q9NY57 whole entry): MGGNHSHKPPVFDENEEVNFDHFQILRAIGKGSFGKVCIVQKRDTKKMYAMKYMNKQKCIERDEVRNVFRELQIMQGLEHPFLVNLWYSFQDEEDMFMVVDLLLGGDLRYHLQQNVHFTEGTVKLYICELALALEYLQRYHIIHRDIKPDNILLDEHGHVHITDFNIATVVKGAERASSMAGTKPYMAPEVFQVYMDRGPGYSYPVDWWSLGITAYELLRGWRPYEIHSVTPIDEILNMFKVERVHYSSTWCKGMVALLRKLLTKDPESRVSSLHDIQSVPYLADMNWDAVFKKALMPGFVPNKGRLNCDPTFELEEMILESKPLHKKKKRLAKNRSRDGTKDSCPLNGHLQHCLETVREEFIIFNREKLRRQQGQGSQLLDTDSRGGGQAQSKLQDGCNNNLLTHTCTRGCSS

Chain of MSSK1/STK23 (Q9UPE1 whole entry): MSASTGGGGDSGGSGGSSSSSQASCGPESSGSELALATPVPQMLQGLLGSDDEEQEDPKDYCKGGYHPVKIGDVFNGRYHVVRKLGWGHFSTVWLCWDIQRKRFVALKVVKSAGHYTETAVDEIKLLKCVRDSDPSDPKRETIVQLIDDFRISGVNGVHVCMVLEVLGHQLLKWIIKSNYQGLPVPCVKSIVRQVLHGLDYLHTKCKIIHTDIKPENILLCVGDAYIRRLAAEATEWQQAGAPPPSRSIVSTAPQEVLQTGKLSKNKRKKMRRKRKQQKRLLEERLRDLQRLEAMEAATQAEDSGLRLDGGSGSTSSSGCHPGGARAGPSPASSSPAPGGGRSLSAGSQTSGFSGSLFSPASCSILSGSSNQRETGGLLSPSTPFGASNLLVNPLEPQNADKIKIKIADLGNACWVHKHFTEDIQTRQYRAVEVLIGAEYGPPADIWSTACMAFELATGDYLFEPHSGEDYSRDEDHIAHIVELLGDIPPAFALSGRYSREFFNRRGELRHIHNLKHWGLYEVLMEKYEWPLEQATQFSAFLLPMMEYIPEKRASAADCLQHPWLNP
Chain of ERN2/IRE2 (Q76MJ5 35-926): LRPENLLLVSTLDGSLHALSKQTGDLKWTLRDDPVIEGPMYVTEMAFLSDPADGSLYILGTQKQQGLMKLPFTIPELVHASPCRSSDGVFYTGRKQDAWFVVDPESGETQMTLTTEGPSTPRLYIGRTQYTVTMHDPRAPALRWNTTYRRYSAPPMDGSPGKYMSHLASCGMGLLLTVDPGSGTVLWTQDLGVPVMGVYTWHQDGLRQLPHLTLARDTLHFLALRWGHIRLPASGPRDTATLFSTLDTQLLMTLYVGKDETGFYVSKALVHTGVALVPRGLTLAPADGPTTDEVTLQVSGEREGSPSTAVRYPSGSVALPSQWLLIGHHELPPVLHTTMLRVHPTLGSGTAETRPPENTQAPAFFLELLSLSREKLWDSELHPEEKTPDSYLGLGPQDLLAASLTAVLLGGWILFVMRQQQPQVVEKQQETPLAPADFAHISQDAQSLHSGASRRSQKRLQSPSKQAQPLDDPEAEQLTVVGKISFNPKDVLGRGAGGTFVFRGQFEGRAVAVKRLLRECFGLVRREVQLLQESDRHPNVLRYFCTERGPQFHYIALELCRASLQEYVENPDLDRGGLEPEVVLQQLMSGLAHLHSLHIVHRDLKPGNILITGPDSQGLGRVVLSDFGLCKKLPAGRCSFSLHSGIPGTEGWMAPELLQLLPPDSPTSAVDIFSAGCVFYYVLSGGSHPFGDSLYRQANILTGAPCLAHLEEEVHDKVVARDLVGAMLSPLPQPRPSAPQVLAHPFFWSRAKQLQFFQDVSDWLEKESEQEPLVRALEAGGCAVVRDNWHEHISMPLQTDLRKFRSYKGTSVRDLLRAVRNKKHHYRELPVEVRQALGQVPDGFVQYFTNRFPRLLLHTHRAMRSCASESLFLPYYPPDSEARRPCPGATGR

For `COc1cc(-c2cncc(-c3ccc(N4C[C@@H](C)N(C)[C@@H](C)C4)cc3)c2C)cc(F)c1C(N)=O` [Compound 26c, 2-Fluoro-6-methoxy-4-(4-methyl-5-(4-((3R,5S)-3,4,5-trimethylpiperazin-1-yl)phenyl)pyridin-3-yl)benzamide], the “% enzyme activity” value (ERN2/IRE2) was 96.29%, the “% enzyme activity” value (MSSK1/STK23) was 99.23% and the “% enzyme activity” value (P38g) was 105.83%. For the same molecule, the “% enzyme activity” value (PASK) was 98.21%, the remaining activity at 1 µM (CDK1/cyclin A) was 90.8% and the remaining activity at 1 µM (EPHA3) was 101%. The remaining activity at 1 µM (ITK) was 102%, the remaining activity at 1 µM (KDR/VEGFR2) was 88.4% and the remaining activity at 1 µM (STK32B/YANK2) was 98.2%.

`COc1cc(-c2cncc(-c3ccc(N4CCN(C)CC4)cc3)c2C)cc(F)c1C(N)=O` [Compound 26a, 2-Fluoro-6-methoxy-4-(4-methyl-5-(4-(4-methylpiperazin-1-yl)phenyl)pyridin-3-yl)benzamide] was tested, and the “% enzyme activity” value (ERN2/IRE2) was 97.32%, the “% enzyme activity” value (MSSK1/STK23) was 98.71% and the “% enzyme activity” value (P38g) was 107.36%. The “% enzyme activity” value (PASK) was 93.23%, the remaining activity at 1 µM (CDK1/cyclin A) was 94.7% and the remaining activity at 1 µM (EPHA3) was 95.7%. For the same molecule, the remaining activity at 1 µM (ITK) was 106%, the remaining activity at 1 µM (KDR/VEGFR2) was 95.9% and the remaining activity at 1 µM (STK32B/YANK2) was 87.6%.
